Laboratory results taken from article PMC4671257, “Plasmodium falciparum SERA5 plays a non-enzymatic role in the malarial asexual blood-stage lifecycle” (Molecular Microbiology, 2015).

Target: SERA5 (rSERA5-C) (Plasmodium falciparum, UniProt Q9TY95, S596C)
Test: fluorogenic peptide (Abz-LAQAVRSSSR-Dpa) cleavage assay with purified rSERA5-C, progress curves
Assay type: biochemical

## CC(C)C[C@H](NC(=O)[C@H]1O[C@@H]1C(=O)O)C(=O)NCCCCN=C(N)N [E64, trans-epoxysuccinyl-L-leucylamido(4-guanidino)butane]
  IC50: 2900 ± 300 nM
